Structures can show the parent of a compound that is named as a salt. Where two headings read alike, the source gives them in different places.
Biological target: T1, BCRP (Homo sapiens, UniProt Q9UNQ0)
T1 sequence (Q9UNQ0 1-655): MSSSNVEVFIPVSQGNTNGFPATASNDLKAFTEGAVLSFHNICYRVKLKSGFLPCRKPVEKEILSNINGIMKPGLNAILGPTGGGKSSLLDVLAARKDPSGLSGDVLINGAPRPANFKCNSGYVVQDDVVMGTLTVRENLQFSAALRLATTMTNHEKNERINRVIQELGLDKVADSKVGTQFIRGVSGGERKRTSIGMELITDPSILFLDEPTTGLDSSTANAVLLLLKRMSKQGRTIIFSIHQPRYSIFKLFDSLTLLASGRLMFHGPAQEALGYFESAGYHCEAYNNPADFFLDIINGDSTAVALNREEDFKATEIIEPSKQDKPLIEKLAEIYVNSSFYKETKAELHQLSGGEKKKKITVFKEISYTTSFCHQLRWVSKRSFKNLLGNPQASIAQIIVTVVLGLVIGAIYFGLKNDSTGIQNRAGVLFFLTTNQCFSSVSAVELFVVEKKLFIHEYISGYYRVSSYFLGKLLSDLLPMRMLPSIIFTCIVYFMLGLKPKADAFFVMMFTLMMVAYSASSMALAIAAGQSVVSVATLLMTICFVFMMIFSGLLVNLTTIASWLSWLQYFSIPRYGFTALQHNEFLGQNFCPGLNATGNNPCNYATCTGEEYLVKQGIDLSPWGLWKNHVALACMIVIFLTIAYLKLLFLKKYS
Assay: Membrane vesicle transport inhibition assay: BCRP-mediated [3H]-E1S uptake
Conditions: for IC50: IC50, [3H]-E1S uptake into BCRP membrane vesicles, 1 min, 37°C, mean ± SEM of three experiments; for IC20 at 1 min: human, membrane vesicles from HEK293 cells overexpressing BCRP, pH 7, probe [3H]-estrone sulfate ([3H]-E1S); for Decrease of BCRP-mediated transport compared to control: toxin 1 mM; for Mode of inhibition of BCRP-mediated transport: Dixon plot, three [3H]-E1S concentrations
Description: Human embryonic kidney (HEK293; purchased at American Type Culture Collection, Manassas, VA) cells were cultured in Dulbecco's modified Eagle's medium (Invitrogen life sciences, Breda, the Netherlands) containing 10% (v/v) fetal calf serum (MP Biomedicals, Uden, the Netherlands) at 37°C in a 5% (v/v) CO2 atmosphere. To functionally overexpress MRP4 and BCRP, HEK293 cells were transduced with baculoviruses of human MRP4, BCRP or enhanced yellow fluorescent protein (EYFP), generated via the Bac-to-Bac system (Invitrogen) as previously described. To transduce HEK293 cells, they were cultured in 500 cm^2 flasks until 70% confluence. Subsequently, medium was removed and 10 ml of virus and 25 ml of medium were added and incubated for 30 min at 37°C. Next, 50 ml of medium was added and after 2 h of transduction 5 mM sodium butyrate was added.
Three days after transduction, cells were harvested and pelleted by centrifugation (30 min at 4,000 x g). Afterwards, the cells were resuspended in ice-cold hypotonic TS buffer (0.5 mM sodium phosphate, 0.1 mM EDTA, pH 7.0) containing protease inhibitors (100 µM phenylmethylsulfonyl fluoride, 5 µg/ml aprotinin, 5 µg/ml leupeptin, 1 µg/ml pepstatin and 1 µg/ml E-64) and shaken for 30 min at 4°C. Cells were then centrifuged at 100,000 x g for 30 min at 4°C. Subsequently, pellet was resuspended in ice-cold isotonic buffer (10 mM Tris-HEPES and 250 mM sucrose, pH 7.4, adjusted with HEPES) supplemented with protease inhibitors and homogenized using a tight fitting Dounce homogenizer followed by centrifugation (1,000 x g, 20 min, 4°C). Afterwards, supernatant was centrifuged at 100,000 x g for 1 h at 4°C. The resulting pellet was resuspended in isotonic buffer and passed through a 27-gauge needle 25 times to obtain crude membrane vesicles. The protein content of samples was determined using the Bio-Rad protein assay (Veenendaal, the Netherlands), according to manufacturers recommendations. Vesicles were frozen in liquid nitrogen and stored at −80°C until use. The orientation of the membrane vesicles was not determined, since ATP-dependent uptake occurs only in inside-out vesicles.
A rapid filtration technique was used to study the uptake of [^3H]-MTX and [^3H]-E1S into MRP4 or BCRP membrane vesicles, as previously described. In short, 25 µl of TS buffer containing 4 mM ATP, 10 mM MgCl2 and radiolabeled substrate was added to 5 µl of the membrane vesicles (1.5 mg/ml). The transport assay was performed in the absence or presence of various concentrations of uremic toxins to evaluate the inhibitory effects of these compounds on MRP4-mediated [^3H]-MTX uptake and BCRP-mediated [^3H]-E1S uptake. […] Uptake was stopped by placing the samples on ice and the addition of 150 µl ice cold TS buffer. Subsequently, the samples were transferred to a 96 well filter plate (Millipore, Etten-leur, the Netherlands) pre-incubated with TS buffer and filtered using a Multiscreen HTS-Vacuum Manifold filtration device (Millipore). Afterwards, 2 ml of scintillation liquid was added to each filter and radioactivity was determined using liquid scintillation counting. As negative controls ATP was substituted for AMP and EYFP-membrane vesicles were used. Each experiment was performed in triplicates.
Statistics were performed using GraphPad Prism 5.02 via an unpaired t test or a Kruskal-Wallis test followed by a Dunn's Multiple Comparison test. Differences between groups were considered to be statistically significant when p<0.05. The mean IC50 and IC20 values were calculated from the inhibition curves used for the Dixon analysis and to determine the inhibition constant (Ki) from the Dixon plots. Transport inhibition studies were performed in triplicate and repeated at least three times.

[1] = [3H]-E1S uptake, result in words

O=C(O)c1cc(=O)c2ccccc2[nH]1 [kynurenic acid]
Ki: 50 µM | IC50: 40 ± 1 µM | IC20 at 1 min: 10 ± 1 µM

O=C(O)Cc1ccccc1 [phenylacetic acid]
Effect on transport mediated by BCRP [1]: only reduced [^3H]-MTX uptake by MRP4

Cc1ccc(S(=O)(=O)O)cc1 [p-toluenesulfonic acid, reference compound]
Effect on transport mediated by BCRP [1]: did not alter transport | Decrease of BCRP-mediated transport compared to control ([3H]-E1S uptake): ≤ 10%

O=C(O)c1cccnc1C(=O)O [quinolinic acid]
Effect on transport mediated by BCRP [1]: did not alter transport | Decrease of BCRP-mediated transport compared to control ([3H]-E1S uptake): ≤ 10%

O=C(O)Cc1c[nH]c2ccccc12 [indole-3-acetic acid]
Effect on transport mediated by BCRP [1]: only reduced [^3H]-MTX uptake by MRP4

O=C(O)C(=O)O [oxalate]
Effect on transport mediated by BCRP [1]: did not alter transport | Decrease of BCRP-mediated transport compared to control ([3H]-E1S uptake): ≤ 10%

O=C(O)CNC(=O)c1ccccc1 [hippuric acid]
Ki: 4000 ± 100 µM | Extent of inhibition of [3H]-E1S uptake by BCRP (0.1 mM to 3.5 mM, result in words): completely blocked | Mode of inhibition of BCRP-mediated transport: non-competitive | IC50: 3670 ± 170 µM | IC20 at 1 min: 690 ± 70 µM

Cc1ccc(O)cc1 [p-cresol]
Effect on transport mediated by BCRP: did not alter transport | Decrease of BCRP-mediated transport compared to control ([3H]-E1S uptake): ≤ 10%

NCCCCN [putrescine]
Effect on transport mediated by BCRP [1]: did not alter transport | Decrease of BCRP-mediated transport compared to control ([3H]-E1S uptake): ≤ 10%

O=S(=O)(O)Oc1c[nH]c2ccccc12 [indoxyl sulfate]
Ki: 500 µM | Mode of inhibition of BCRP-mediated transport: non-competitive | IC50: 770 ± 120 µM | IC20 at 1 min: 390 ± 30 µM

Source: paper PMC3070735, “Uremic Toxins Inhibit Transport by Breast Cancer Resistance Protein and Multidrug Resistance Protein 4 at Clinically Relevant Concentrations” (PLoS ONE, 2011)
